# Measurements reported in publication PMC10813319 (Biomedicines, 2024).
# Like-named read-outs stand apart in the source and are kept apart here. Square brackets hold non-standard residues; d marks the D form. Peptide text beside a SMILES is read from it.
# Legend:
# [1] = tested on: Aβd/t-induced cofilactin rods in Day 55 human iPSC-derived glutamatergic neurons
# Description: (§1) The predominantly dimer/trimer fraction of a secreted human amyloid-β (Aβd/t) was derived from a Chinese hamster ovary-cell line (7PA2) [62]. Medium from these cells collected after overnight incubation was concentrated 10-fold on Amicon Ultra 15 mL, 3K cut-off spin filters (Sigma-Aldrich), and the concentrate fractionated on a Superdex-75 Increase (Sigma-Aldrich) gel filtration column equilibrated in 50 mM ammonium acetate buffer [20, 24]. The fractions containing Aβd/t were identified by Western blots using an Aβ antibody (6E10; 1:1000) (Covance, Princeton, NJ, USA). Fractions were freeze-dried, resolubilized in 1 mL of sterile water, and freeze-dried a second time for storage. The Aβd/t fraction was reconstituted to 1X (concentration in 7PA2 culture medium, assuming full recovery of the dimer/trimer fraction) in neuronal culture medium prior to addition to neuronal cultures. Quantification of the total Aβd/t pool was determined to be about 1 nM (monomer equivalent) by comparison on immunoblots to a standard curve using synthetic Aβ [20].
# (§2) Human neurons were derived from iPSC WTC-11 cells, in which a doxycycline-regulated promoter drives the expression of the Ngn2 transcription factor for glutamatergic neuronal differentiation [67, 68]. […] Differentiated neurons were plated at 60,000 per well and cultured for 55 days in glial-conditioned complete homemade neurobasal medium (hNB) either on poly-D-lysine/Matrigel (Corning Life Sciences, Tewksbury, MA, USA) coated glass bottom 24-well plates (Cellvis, Mountain View, CA, USA) or on similarly coated 12 mm German glass coverslips placed in plastic 24-well plates.
# (§3) Cultured neurons were exposed to inhibitors and/or Aβd/t for 20–24 h prior to fixation for 30 min with 4% formaldehyde ± 0.1% glutaraldehyde in cytoskeletal buffer [72], washed 3 times with PBS, and permeabilized with −20 °C methanol (3 min while warming to RT). Methanol permeabilization without the use of non-ionic detergents is critical for optimal observation of rods [13]. After removing the methanol, neurons were washed twice in PBS, twice in Tris Buffered Saline (TBS: 10 mM Tris, pH 7.5, 150 mM NaCl), and incubated for 1 h at RT with blocking buffer (2–5% goat or donkey serum, 1% bovine serum albumin (BSA) in TBS). Primary antibodies (rabbit 1439 anti-cofilin, mouse anti-neurofilament, and chicken anti-MAP2) were diluted in 1% BSA in TBS and incubated overnight on cells at 4 °C. After 3–5 washes with TBS, secondary fluorescent-labeled antibodies (goat anti-rabbit Alexa 488 or 647, goat anti-mouse Alexa 564, or goat anti-chicken Alexa 488 or 564) ± DAPI (1:500 of 1 mg/mL) were added for 1 h at RT in 1% BSA/TBS. After 3–5 TBS washes, coverslips were mounted onto glass slides with Prolong Diamond Antifade ± DAPI (Thermo-Fisher) and air dried overnight in the dark.
# (§4) Stitched images of fixed neurons immunolabeled for cofilin and nuclei (DAPI), as well as either NF-H or MAP2, were exported as tiff files to Metamorph (version 7.8, Molecular Devices, San Jose, CA, USA) or ImageJ (Version 1.53e; Java 1.8.0_172; ImageJ.org). In some cases, macro functions were applied to set local thresholds and shape/size segmentation for cofilin rods.
# [2] = tested on: pre-formed Aβd/t-induced cofilactin rods in Day 55 human neurons
# [3] = tested on: pre-formed Aβd/t-induced cofilin-mRFP rods in E18 rat neurons
# [4] = tested on: dual tropic gp120MN-induced cofilactin rods in Day 55 human neurons
# [5] = tested on: IL-6-induced cofilactin rods in Day 55 human neurons
# [6] = tested on: Aβd/t-induced cofilactin rods in Day 55 human iPSC-derived glutamatergic neurons; experiment: cells; conditions: Neuron, read-out: EC50 for inhibition of Aβd/t-induced rods, human neurons
# Description: as §1, §2, §3, §4
# [7] = tested on: pre-formed Aβd/t-induced cofilactin rods in Day 55 human neurons; conditions: AMD3100 30 nM for 24 h in the continued presence of Aβd/t; cited from earlier work
# [8] = tested on: Aβd/t-induced cofilactin rods in 6 DIV rat hippocampal neurons
# [9] = tested on: glutamate-induced cofilactin rods in 6 DIV rat hippocampal neurons
# [10] = read-out: Human Neuron EC50, inhibition of Aβd/t-induced rods, Day 55 human neurons treated 24 h with Aβd/t plus peptide, Table 1
molecule,measurement,setting,value
Maraviroc [reference compound],EC50,"[1]; read-out: EC50 for inhibition of Aβd/t-induced rods, human neurons, Day 55 human iPSC-derived neurons, <1 nM to 100 nM, approximate, estimated from semi-log plots (Figure S2C,D), n = 2",8 to 9 nM
C[C@H](O)[C@@H](N)C(=O)N[C@@H](C(=O)N[C@H](CC(N)=O)C(=O)N[C@H](Cc1ccc(O)cc1)C(=O)N[C@@H](C(=O)O)[C@H](C)O)[C@H](C)O [RAP-103],Time to 50% rod reversal in human neurons,[2],~ 3 h
same,Adjusted time of 50% loss of rod area,[3],about 200 min
same,Extrapolated time to 50% decrease in rod size,[3],~ 3 h
same,Rate of rod reversal relative to AMD3100,[3],2 fold
same,Reversal of rods induced by and in the continued presence of Aβd/t,[3],reversed rods
same,Inhibition of gp120MN-induced rod formation,[4],completely inhibited
same,EC50,[5],~0.0001 nM
c1cc(CN2CCCNCCNCCCNCC2)ccc1CN1CCCNCCNCCCNCC1 [AMD3100],EC50,[6],2 to 3 nM
same,Reversal of rods induced by and in the continued presence of Aβd/t,"[3]; AMD3100 50 nM, RAP-103 0.1 nM, live imaging over 2.5 h, n = 3",reversed rods
same,Reversal of Aβd/t-induced rods in human neurons,[7],reversed
CN[C@@H](C(=O)N[C@@H](C(=O)N[C@H](CC(N)=O)C(=O)N[C@H](Cc1ccc(O)cc1)C(=O)N[C@@H](C(=O)O)[C@H](C)O)[C@H](C)O)[C@H](C)O [Peptide 6],EC50,[1]; [10],> 1 nM
C[C@H](O)[C@@H](NC(=O)[C@@H](Cc1ccc(O)cc1)NC(=O)[C@@H](CC(N)=O)NC(=O)[C@H](NC(=O)[C@H](NC(=O)[C@H](NC(=O)[C@@H](CO)NC(=O)[C@@H](C)N)[C@H](C)O)[C@H](C)O)[C@H](C)O)C(N)=O [RAP-310],"Inhibition of Aβd/t-induced rods, rat neurons",[8],fully inhibited
same,Inhibition of glutamate-induced rods,[9],did not inhibit
C[C@H](O)[C@@H](NC(=O)[C@@H](CO)NC(=O)[C@H](N)CO)C(=O)N[C@H](Cc1ccc(O)cc1)C(=O)N[C@H](CCCNC(=N)N)C(=O)O [Peptide 2] (H-[dS][dS][dT][dY][dR]-OH; N-terminus and C-terminus assumed),EC50,[1]; [10],~1 nM
C[C@H](O)[C@@H](NC(=O)[C@@H](Cc1ccc(O)cc1)NC(=O)[C@@H](CC(N)=O)NC(=O)[C@H](NC(=O)[C@H](N)CO)[C@H](C)O)C(=O)O [Peptide 3] (H-[dS][dT][dN][dY][dT]-OH),EC50,[1]; [10],~1.5 nM
